In this assay the target is T1, Bovine Adrenal Estrogen Sulfotransferase (Bos taurus, UniProt P19217).
T1 construct: The enzyme was isolated from the bovine adrenals; from tissue; host or cells: bovine adrenals; purified by ammonium sulfate fractionation and chromatography on DEAE-cellulose or DEAE-Sephadex A-50
T1 sequence (P19217 1-295): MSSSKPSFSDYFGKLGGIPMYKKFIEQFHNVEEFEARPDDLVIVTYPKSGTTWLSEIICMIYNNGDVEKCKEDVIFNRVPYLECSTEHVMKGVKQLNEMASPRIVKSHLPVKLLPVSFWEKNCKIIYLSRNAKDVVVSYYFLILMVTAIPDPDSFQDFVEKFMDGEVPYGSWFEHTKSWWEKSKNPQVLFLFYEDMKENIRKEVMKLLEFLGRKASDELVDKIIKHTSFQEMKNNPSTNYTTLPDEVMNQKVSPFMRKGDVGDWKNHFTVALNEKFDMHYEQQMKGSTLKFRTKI
Briefly: Inhibition of bovine adrenal estrogen sulfotransferase (estrone sulfurylation). It is filed as biochemical. The procedure: Materials are evaluated for activity as estrogen sulfotransferase inhibitors by the method of Rozhin et al, Journal of Biological Chemistry, 252:7214-7220 (October 25, 1977), herein incorporated by reference.
Isolation of Estrogen Sulfotransferase (EC 2.8.2.4). The enzyme was isolated from the bovine adrenals and purified by ammonium sulfate fractionation and column chromatography on DEAE-cellulose or DEAE-SephadexA-50 [Rozhin et al (1974)].
Standard Enzyme Assay. The incubation mixtures contained the following in a total volume of 0.2 ml: 0.4 mM P-Ado-PS; 2 to 23 μM estrone (3-hydroxy-1,3,5(10)-estratriene-17-one), 5×10^5 dpm of [6,7-^3 H]estrone; 5 mM magnesium acetate; 0.19 M Tris/HCl buffer (pH 8.1 at 37°); 5 ug of the enzyme; and 25 μM dithiothreitol. After a 10-min incubation (in the presence of a constant amount of inhibitor and a variable amount of estrone), the boiled mixtures were supplemented with 5 μg of aqueous estrone sulfate. The remaining [^3 H]estrone was extracted three times with 0.3 ml of ethyl ether. The residual ether was removed and the volume adjusted to 0.5 ml with methanol. A sample (25 μl) was applied, together with 10 μg of methanolic estrone sulfate marker, to type SG chromatography media (Gelman Instrument Co., Ann Arbor, Mich.), and developed with chloroform/acetone/acetic acid (110:35:6). After drying the sheet, samples were visualized by spraying with methylene blue (25 mg in 100 ml of 0.05 N H2 SO4), punched out with a cork borer, and counted in 10 ml of dioxane counting liquid. A blank employing a boiled enzyme sample was incubated and the recorded counts were substracted from each determination. The total corrected counts, representing steroid sulfate ester, were converted to nanomoles utilizing the specific activity of [^3 H]estrone. An enzyme unit was defined as that quantity of enzyme which synthesized 1 nmol of estrone sulfate in 1 min under chosen conditions. […] When nonsubstrate steroids were used as the inhibitors, the procedure for the enzyme assay was as described earlier [Rozhin et al (1974)], utilizing 5 μg of enzyme, P-Ado-[^35 S]PS, and unlabeled estrone.
Data Processing. The initial velocity analysis was carried out keeping the concentration of P-Ado-PS at saturation level, varying the estrone concentration and keeping the concentration of the inhibitor at a fixed level. Preliminary plots of the data were made in the double reciprocal form (l/v versus l/[S]), and in the form of replots of slopes (and intercepts) versus inhibitor concentration. On the basis of these plots, the proper inhibition pattern was chosen for each experiment and the data points were fitted to the appropriate equation.
Linear competitive inhibition: [formula]
Hyperbolic competitive inhibition: [formula]
Slope-parabolic non-competitive inhibition: [formula]
All calculations were performed using Cleland's Fortran programs (Adv. Enzymol., 29:1-32). The programs gave the values of Km, Vmax, and inhibition constants.
Fractional Inhibition. From kinetic experiments, Ki was calculated as described above under "Data Processing" after making replots of slopes (and/or intercepts) versus inhibitor concentration. […] Substituting v and vi from the corresponding rate equations in the absence of (v=(Vmax [S])/(Km +[S])) and presence of a (competitive) inhibition (Equation 1), the following relationship for FI is obtained: [formula] After substituting [S], Km, and [I] (see above), the equation for the fractional (competitive) inhibition simplifies to: [formula] and the mathematical relationship between FI and Ki of competitive inhibitors is represented by the continuous curve in FIG. 2 in Rozhin et al., J. Biol. Chem., 252, 7214-7220, 1977. The dashed line represents the relationship between FI and the Ki of pure noncompetitive inhibition derived mathematically in an analogous manner and expressed as [formula] Since [I]=22.2 μM, [formula]

As to `C[C@]12CC[C@@H]3c4ccc(O)cc4CC[C@H]3[C@@H]1CC[C@@H]2O` [1,3,5(10)Estratriene-3,17β-diol], where the note is “inhibitors 3 to 6, 12 and 16, from kinetic experiments, read-out: Ki (Table I), determined experimentally”, the inhibition constant Ki was found to be 6.1 µM. Also, the inhibition at 22.2 µM (pH 8.1, read-out: Fractional Inhibition (Table I)) is 68%.

For orientation: Ki means a dissociation constant, usually derived from enzyme kinetics or from competition with a known ligand. The inhibition is how much of the control response was suppressed.

These data come from patent US4340602A, “Compositions inhibiting estrogen sulfotransferase activity” (Wayne State University, priority 1978, dated 1982).
